{"source": "patent US20130324542A1", "about": "“[1,2,4]TRIAZOLO[4,3-B][1,2,4]TRIAZINE COMPOUNDS, PREPARATION METHOD AND USE THEREOF” (SHANGHAI INSTITUTE OF MATERIA MEDICA, CHINESE ACADEMY OF …, priority 2010, published 2013)", "key": {"NIH3T3 background cells": {"tested_on": "NIH3T3 background cells", "assay": "Cell proliferation, SRB assay, NIH3T3 background cells as control", "format": "cell-based", "details": "72 h", "experimental": "NIH3T3/TPR-Met cells in the logarithmic growth phase and NIH3T3 background cells were seeded in a 96-well microcuture plate at 90111_, per well and cultivated overnight, followed by addition of 104 of the compound at different concentrations. Three concentrations were set, and for each concentration, the test was carried out in triplicate wells. 72 h later, the culture medium was removed. The residue was fixed by precooled 10% TCA at 4° C. for 1 h, washed by distilled water for 5 times and dried at room temperature. After that, 4 mg/mL of sulforodamine B (SRB) in 1% glacial acetic acid was added to each well (1004 per well) for staining at room temperature for 15 min. The excess dye was removed by washed with 1% glacial acetic acid for 5 times and dried in air. At last, 150 μL of Tris-HCL solution (10 mM Tris, pH 10.0) was added to each well. OD values were measured on a multi-well spectrophotometer at […]."}, "c-Met tyrosine kinase": {"target": "c-Met tyrosine kinase (Homo sapiens, UniProt P08581)", "sequence (P08581 25-1390)": "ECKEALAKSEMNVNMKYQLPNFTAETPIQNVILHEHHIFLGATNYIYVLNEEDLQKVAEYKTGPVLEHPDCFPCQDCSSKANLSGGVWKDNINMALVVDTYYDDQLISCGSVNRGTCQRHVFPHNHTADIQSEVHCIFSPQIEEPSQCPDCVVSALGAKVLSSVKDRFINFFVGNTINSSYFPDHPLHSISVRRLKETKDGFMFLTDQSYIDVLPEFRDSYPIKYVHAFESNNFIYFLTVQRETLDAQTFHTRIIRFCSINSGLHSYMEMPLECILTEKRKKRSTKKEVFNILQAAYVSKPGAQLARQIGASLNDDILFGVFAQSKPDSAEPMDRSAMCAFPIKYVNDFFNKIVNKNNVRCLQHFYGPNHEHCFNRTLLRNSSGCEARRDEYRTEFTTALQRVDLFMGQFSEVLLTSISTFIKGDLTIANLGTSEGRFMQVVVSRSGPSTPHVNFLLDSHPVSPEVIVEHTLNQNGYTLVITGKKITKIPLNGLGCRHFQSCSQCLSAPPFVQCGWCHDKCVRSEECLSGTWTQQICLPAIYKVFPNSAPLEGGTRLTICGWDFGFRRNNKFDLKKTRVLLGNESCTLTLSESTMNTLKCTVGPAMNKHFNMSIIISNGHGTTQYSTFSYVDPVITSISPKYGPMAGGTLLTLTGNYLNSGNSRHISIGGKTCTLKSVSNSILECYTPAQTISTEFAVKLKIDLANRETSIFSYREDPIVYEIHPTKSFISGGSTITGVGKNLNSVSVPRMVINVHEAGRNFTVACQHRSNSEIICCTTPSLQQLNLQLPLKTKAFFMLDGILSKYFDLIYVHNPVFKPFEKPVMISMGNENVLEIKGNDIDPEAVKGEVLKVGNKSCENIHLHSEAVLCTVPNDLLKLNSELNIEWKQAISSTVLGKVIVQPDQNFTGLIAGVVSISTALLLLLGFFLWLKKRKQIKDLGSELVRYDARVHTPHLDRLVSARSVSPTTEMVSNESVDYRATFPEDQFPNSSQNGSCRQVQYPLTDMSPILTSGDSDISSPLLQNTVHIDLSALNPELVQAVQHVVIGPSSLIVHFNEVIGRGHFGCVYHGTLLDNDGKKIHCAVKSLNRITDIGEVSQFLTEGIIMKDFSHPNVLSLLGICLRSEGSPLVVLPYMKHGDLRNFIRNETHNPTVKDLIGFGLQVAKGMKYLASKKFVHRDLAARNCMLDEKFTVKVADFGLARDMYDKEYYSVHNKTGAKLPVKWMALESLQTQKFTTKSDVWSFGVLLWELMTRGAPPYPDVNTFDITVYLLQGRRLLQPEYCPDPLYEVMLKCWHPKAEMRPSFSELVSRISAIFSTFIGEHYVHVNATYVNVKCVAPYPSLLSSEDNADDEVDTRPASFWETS", "assay": "c-Met kinase activity on molecular level (ELISA, Poly(Glu,Tyr)4:1 substrate)", "format": "biochemical", "details": "ATP 5 μM, 37° C., 1 h", "experimental": "Poly(Glu, Tyr)4:1 as an enzyme substrate was diluted by potassium ion-free PBS (10 mM, sodium phosphate buffer, 150 mM NaCl, pH7.2-7.4) into a solution of 20 μg/ml. […] After the liquid in wells was removed, the plate was washed three time by T-PBS (PBS solution containing 0.1% Tween-20) at 200 μl/well, 5 min for each time. The ELISA plate was then dried in an oven at 37° C. for 1-2 h.\nEach well was added with 50 μL of ATP solution diluted by reaction buffer (50 mM HEPES pH 7.4, 50 mM MgCl2, 0.5 mM MnCl2, 0.2 mM Na3VO4, 1 mM DTT) at a final concentration of 5 μM. Compound diluted by 1% DMSO into a suitable concentration was added at 10 μl/well and then c-Met tyrosine kinase protein diluted by 40 μl of reaction buffer was added. The plate was placed on a shaking table (100 rpm) at 37° C. and incubated for 1 h, and then washed three times by T-PBS. For each assay, triplicate wells without enzyme were used as blank control and wells having the corresponding DMSO concentration without compound were used as negative control. Primary antibody PY99 (p-Tyr (PY99), Cell Signaling Technology, 1:1000 diluted in 5 mg/mL BSA T-PBS) was added at 100 μl/well. The plate was then placed on a shaking table at 37° C. and incubated for 0.5 h, and washed by T-PBS. Secondary antibody horseradish peroxidase-conjugated goat anti-mouse IgG (1:2000 diluted in 5 mg/mL BSA T-PBS) was added at 100 μl/well. The plate was then placed on a shaking table at 37° C. for 0.5 h and washed three times by T-PBS. 2 mg/mL of OPD developer (diluted by a 0.1M citric acid-sodium citrate buffer (pH=5.4) containing 0.03% of H2O2) was added at 100 μl/well, and the plate was kept in dark at 25° C. for 1-10 min. OPD was ultrasonically dissolved and the developer solution was prepared just before use. 2 M of H2SO4 was added at 50 μl/well to stop the reaction. The plate was read using a wavelength regulated multi-well spectrophotometer (SPECTRA MAX 190) at 490 nm.\nThe inhibition rate was calculated according to the following equation:\nInhibition rate (%)=(1−(ODcompound−ODblank)/(ODnegative−ODblank))×100%\nIC50 value was calculated through a four-parameter fit according to the inhibition curve."}, "[1]": {"assay": "Body weight and death of nude mice bearing U-87MG (toxicity and side effect)", "details": "50 and 100 mg/kg intraperitoneally once daily, 17 days", "experimental": "LI-87MG Cells were inoculated subcutaneously in right axillary fossa of nude mice with 5×10^6 cells per mouse. After the xenografted tumor was formed, it was passed three generations in nude mice and then used. Tumor tissue in productive phase was cut into nubs of about 1.5 mm^3 and inoculated subcutaneously in right axillary fossa of the nude mice in a sterile condition. The diameters of the xenografted tumors were measured by a vernier caliper. […] The administration was performed once daily and lasted for 17 days. At the same time, the negative group was administered with equivalent physiological saline.\nwherein, CVt was tumor volume in control group measured at a given time point, CV0 was tumor volume in control group measured before grouping and treatment, TVt was tumor volume in treatment group measured at a given time point, and TV0 was tumor volume in treatment group measured before grouping and treatment. The significant differences between the treated and control groups were evaluated using t-test. At the same time, body weight of nude mice in each group was measured twice a week to preliminarily evaluate the toxicity and side effect of compound."}, "NIH3T3/TPR-Met cells": {"tested_on": "NIH3T3/TPR-Met cells", "assay": "Cell proliferation mediated by c-Met, SRB assay, NIH3T3/TPR-Met cells", "format": "cell-based", "details": "72 h", "experimental": "Three concentrations were set, and for each concentration, the test was carried out in triplicate wells. 72 h later, the culture medium was removed. The residue was fixed by precooled 10% TCA at 4° C. for 1 h, washed by distilled water for 5 times and dried at room temperature. […] The excess dye was removed by washed with 1% glacial acetic acid for 5 times and dried in air. At last, 150 μL of Tris-HCL solution (10 mM Tris, pH 10.0) was added to each well."}, "TPR-Met": {"target": "T1, TPR-Met (Homo sapiens, UniProt P08581)", "T1 construct": "therein no interference of Met's extracellular fragment, and the intracellular TPR-Met fused protein was expressed in cytoplasm; expressed in transfected cells; host or cells: NIH3T3/TPR-Met cells (mouse fibroblasts expressing TPR-Met); the other entry of the earlier key: TPR (P12270, Nucleoprotein TPR)", "T1 sequence (P08581 with tags, fused parts or gaps)": "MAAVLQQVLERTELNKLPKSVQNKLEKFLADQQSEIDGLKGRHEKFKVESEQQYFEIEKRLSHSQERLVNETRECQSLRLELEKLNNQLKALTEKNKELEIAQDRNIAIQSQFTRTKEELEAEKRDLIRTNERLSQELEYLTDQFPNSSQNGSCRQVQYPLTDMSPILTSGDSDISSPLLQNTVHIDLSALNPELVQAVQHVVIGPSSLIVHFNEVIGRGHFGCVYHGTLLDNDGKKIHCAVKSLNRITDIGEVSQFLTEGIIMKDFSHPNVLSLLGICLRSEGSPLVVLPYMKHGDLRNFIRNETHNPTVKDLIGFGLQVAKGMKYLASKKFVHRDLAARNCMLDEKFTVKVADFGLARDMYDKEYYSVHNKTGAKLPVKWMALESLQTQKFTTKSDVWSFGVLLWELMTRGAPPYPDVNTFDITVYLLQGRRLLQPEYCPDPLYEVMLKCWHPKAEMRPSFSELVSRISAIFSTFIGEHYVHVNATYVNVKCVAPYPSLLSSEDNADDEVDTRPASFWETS", "assay": "TPR-Met phosphorylation in NIH3T3/TPR-Met cells (Western blot)", "format": "cell-based", "details": "0.01 μM, 6 h", "method": "NIH3T3/TPR-Met cells (in such cells, therein no interference of Met's extracellular fragment, and the intracellular TPR-Met fused protein was expressed in cytoplasm and could be activated continuously independent of HGF) were inoculated on a 12-well plate. After fusion degree reached 80%, the cells were treated with indicated concentration of corresponding compounds and SU11274 for 6 h at 37° C., collected and washed once by cold PBS (containing 1 mM sodium vanadate), and lysed with 1×SDS gel loading buffer (50 mM Tris-HCl (pH 6.8), 100 mM DTT, 2% SDS, 10% glycerin, 1 mM sodium vanadate, and 0.1% bromophenol blue). The lysate was heated in a boiling-water bath for 10 min and then centrifuged (12000 rpm) at 4° C. for 10 min.\nThe supernatant was subjected to SDS-PAGE electrophoresis and the protein was transferred to nitrocellulose membranes (Amersham Life Sciences, Arlington Heights, Ill., USA) by a Semi-Dry Electroblotting System. […] The membrane was washed three times by TBS/T containing 1 mM of sodium vanadate, 15 min for each time, and then placed in a solution of secondary antibody (1:2000) at room temperature for 1-2 hours. After the membranes were washed 3 times as above, they were dyed with an ECL reagent, exposed and developed.\nThe nitrocellulose membranes were placed in Reblot™ solution of Chemicon co. […]"}, "[2]": {"tested_on": "Human Glioblastoma Cells U-87MG Xenograft", "assay": "Tumor growth in human glioblastoma U-87MG xenograft model of nude mice", "format": "in vivo", "details": "for tumor growth inhibition (TGI): 17 days, end of treatment", "experimental": "The treatment group was administered intraperitoneally and daily with compound I-19 at various concentrations (50 mg/kg, 100 mg/kg) respectively.\nThe length (A) and width (B) of the tumor in mice were measured twice a week and tumor volume was calculated thereby as: V=A×B^2/2. Provided that Vt was the tumor volume measured at a given time point and V0 was the tumor volume measured before the mice were grouped and administered, tumor growth inhibition (TGI) was calculated as: […]"}}}
{"smiles": "Cn1cc(-c2ccc3nnc(C(F)(F)c4ccc5ncccc5c4)n3n2)cn1", "note": "[JNJ-38877605, reference compound]", "values": [{"measurement": "inhibition rate (%) on proliferation of NIH3T3 background cells", "setting": "NIH3T3 background cells; 1 μM", "result": 16.0, "unit": "%"}, {"measurement": "inhibition rate (%) on proliferation of NIH3T3 background cells", "setting": "NIH3T3 background cells; 10 μM", "result": 15.1, "unit": "%"}, {"measurement": "inhibition rate (%) on proliferation of NIH3T3 background cells", "setting": "NIH3T3 background cells; 50 μM", "result": 25.7, "unit": "%"}, {"measurement": "IC50", "setting": "c-Met tyrosine kinase", "result": 950, "unit": "pM"}, {"measurement": "weight loss of nude mice", "setting": "[1]", "result": "No mouse in I-19 or JNJ-38877605 treated group show obvious weight loss"}, {"measurement": "inhibition rate (%) on proliferation of NIH3T3/TPR-Met cells", "setting": "NIH3T3/TPR-Met cells; 1 μM", "result": 70.8, "unit": "%"}, {"measurement": "inhibition rate (%) on proliferation of NIH3T3/TPR-Met cells", "setting": "NIH3T3/TPR-Met cells; 10 μM", "result": 72.2, "unit": "%"}, {"measurement": "inhibition rate (%) on proliferation of NIH3T3/TPR-Met cells", "setting": "NIH3T3/TPR-Met cells; 50 μM", "result": 77.3, "unit": "%"}, {"measurement": "c-Met phosphorylation in NIH3T3/TPR-Met cells", "setting": "TPR-Met", "result": "less potency"}, {"measurement": "tumor growth inhibition (TGI)", "setting": "[2]; 50 mg/kg intraperitoneally once daily", "result": 101.4, "unit": "%"}, {"measurement": "tumor growth inhibition (TGI)", "setting": "[2]; 100 mg/kg intraperitoneally once daily", "result": 106.9, "unit": "%"}, {"measurement": "inhibitory action on the growth of transplanted tumor", "setting": "[2]; at each administration dose (50, 100 mg/kg i.p. daily)", "result": "significantly inhibitory action"}]}
